Measurements as given in patent publication US20050020615A1, “CCI-779 lyophilized formulations” (Wyeth, priority 2003, published 2005).

Tests used:
[1] = tested on: human glioblastoma cell line; conditions: in vitro, platelet-derived growth factor; cited from earlier work
Solubility in water = format: physicochemical
[2] = tested on: histologically diverse tumor cells; conditions: in vitro; cited from earlier work
orthotopic glioma = conditions: nude mice; cited from earlier work
[3] = tested on: human tumor xenografts of diverse histological types; conditions: nude mice; cited from earlier work
[4] = Chemical stability of CCI-779 in solution (pH, chelating agent); format: physicochemical; conditions: citric acid at less than 0.01% w/v
From the text: Desirably, when a significant amount of water (e.g,. 40% v/v or greater) is present in the solvent blend of the pre-lyophilized solution, it is advantageous to adjust the pH to 4 to 6 as this is the range of maximum stability for CCI-779. In one embodiment, the pH is adjusted to a pH of about 5.5.
In some embodiments, components with chelating activity are included in the formulations of the invention as the sole “antioxidant component”. Typically, such metal-binding components, when acting as chelating agents are used in the lower end of the range of concentrations for the antioxidant component provided herein. […] Additionally, such chelating agents may be used in combination with other antioxidants as part of the antioxidant component of the invention. For example, an acceptable formulation may contain both citric acid and d,l-α-tocopherol. Optimal concentrations for the selected antioxidant(s) can be readily determined by one of skill in the art, based upon the information provided herein. All percentages are expressed a % w/v in the pre-lyophilized solution.
Desirably, the pre-lyophilization solution has a pH in the range of 4 to 6, which has been found by the inventor to improve the stability of CCI-779. Depending upon the components of the pre-lyophilization solution, the pH can be adjusted using any suitable inorganic or organic acid, or base, as needed. […]

CO[C@H]1C[C@@H]2CC[C@@H](C)[C@@](O)(O2)C(=O)C(=O)N2CCCC[C@H]2C(=O)O[C@H]([C@H](C)C[C@@H]2CC[C@@H](OC(=O)C(C)(CO)CO)[C@H](OC)C2)CC(=O)[C@H](C)/C=C(\C)[C@@H](O)[C@@H](OC)C(=O)[C@H](C)C[C@H](C)/C=C/C=C/C=C/1C [CCI-779, rapamycin 42-ester with 3-hydroxy-2-(hydroxymethyl)-2-methylpropionic acid]
growth factor-induced stimulation of cells [1]: markedly suppressed | solubility in water (Solubility in water): poor solubility in water | growth of tumor cells [2]: inhibit the growth | activity in orthotopic glioma model (orthotopic glioma): active | activity against xenografts [3]: has activity | effect of citric acid on stability of CCI-779 [4]: enhanced the stability
